Holding throughout (assay type): in vivo, human
Series [1] can be described thus: Tegretol level in patient (Example 4). As to conditions: both before and after starting triacetyluridine, found subtherapeutic.
Series [2] relates to adult with familial history of mitochondrial disease. The text has this: KL is an adult who first came to the investigator's attention after the diagnosis of their son with mitochondrial disease leading to stroke-like episodes, ataxia, and encephalopathy. Before administration of triacetyluridine, KL suffered with recurrent pyelonephritis, infection-association neutropenia, […] migraines, grand-mal seizures, neurogenic bowel and bladder requiring QID catheterization, biliary […], dysphagia and pc cough, peripheral and autonomic polyneuropathy, painful paresthesias, cardiac conduction disturbances with SVT and tachy-brady syndrome, severe orthostatic hypotension, orthopnea, and poor functional capacity with inability to climb a flight of stairs without stopping to rest, and declining cognitive performance with episodes of clouded sensorium and poor memory that would last hours to days. KL started triacetyluridine at a dose of 0.05 g/kg/d.

The test system of series [3] is child with Leigh syndrome, lactic acidemia, and renal tubular acidosis. The series is described as follows: Administration of triacetyluridine to a subject having Leigh syndrome (Example 5). The text has this:
patient two was a child with Leigh syndrome, lactic acidemia, and renal tubular acidosis who suffered a hypertensive crisis and acute edema as they came out of general anesthesia for replacement of an elective percutaneous gastrostomy tube (PEG). […] They developed pneumonia as a complication of PEG and developed new Leigh syndrome lesions in the spinal cord, midbrain, and thalamus. They drifted into a coma 3 days after PEG placement. The person received emergency treatment with triacetyluridine.

The test system of series [4] is child with refractory epilepsy and multiple mitochondrial DNA deletion syndrome. The series can be described thus: Administration of triacetyluridine to a subject having multiple mitochondrial DNA deletion syndrome (Example 4). As to conditions: patient. From the text: patient one is a child with refractory epilepsy. As a 5th grader they were able to play little league baseball. […] This disorder produces multiple deleted copies of mitochondrial DNA and can lead to a number of symptoms. SK began deteriorating. They had 2 ICU admissions for crescendo epilepsy, and had 7 changes in their anticonvulsant regimen in the succeeding 4 months. They were having 8-10 grand-mal seizures every night, leaving them postictal for much of the morning. They also developed upper lip automaticity. The patient was initially administered 0.05 g/kg/day of triacetyluridine for one week, followed by 0.16 g/kg/day for 1 week, and then 0.24 g/kg/day.

In series [5] the test system is patients with mitochondrial renal tubular acidosis (RTA). The series can be described thus: Treatment of patients with mitochondrial renal tubular acidosis with triacetyluridine (Example 1). The text has this:
Four patients with mitochondrial renal tubular acidosis (RTA) were studied. Mitochondrial RTAs often defy simple classification as proximal (type II) or distal (type I) tubulopathies, as these patients are often mosaics and express features of both phenotypes leading to hyperchloremic (non-anion gap) metabolic acidosis.
Patient #1 was a person with Leigh syndrome, lactic acidemia, and complex I deficiency who required 200 mEq/day of NaHCO3 to compensate for renal losses of alkali, and maintain serum bicarbonate levels above 20 mEq/l, 1+ proteinuria, and significant aminoaciduria with hydroxyprolinuria.
Patient #2 was a person with Leigh syndrome, and complex IV (COX) deficiency, who also required 200 mEq/day of NaHCO3.
Patient #3 was a person with Leigh syndrome, lactic acidemia, 1+ proteinuria, and pyruvate dehydrogenase (PDH) deficiency, who required up to 210 mEq/day of NaHCO3.
Patient #4 was a person with 3-hydroxyisobutyric aciduria, lactic acidemia, and encephalomyopathy, who required 468 mEq/day of NaHCO3.
Blood and urine electrolytes, creatinine, pH, urinalysis, and venous blood gases were studied before and after treatment. Quantitative urine amino acids and organic acids were also obtained. Pre-enrollment doses of oral sodium bicarbonate were continued for the first 3 days of triacetyluridine treatment, then reduced weekly as tolerated to maintain serum bicarbonate above 20 mEq/1.
Patients received triacetyluridine 2 g/m^2 PO TID.

The test system of series [6] is child with MARIAHS syndrome. From the text:
CMZ is a child with mitochondrial ataxia, recurrent infections, aphasia, hypouricemia/hypomyelination, and seizures ([…] syndrome), cared for […]. Symptoms indicate a primary deficiency in the enzyme dihydroorotate dehydrogenase, the rate-limiting step in de novo pyrimidine synthesis, which could lead to a functional dependence on exogenous uridine. […] treatment began with uridine. […] the treating agent was switched to triacetyluridine because it is a more easily absorbed form of uridine.

Setting [7] is: patient three, started at 0.05 g/kg/d.
[8] abbreviates: Patient #1, triacetyluridine 2 g/m^2 PO TID.

Compound `NC(=O)N1c2ccccc2C=Cc2ccccc21` [tegretol] yielded a tegretol level in series [1] of 4 µg/mL.
For `CC(=O)OC[C@H]1O[C@@H](n2ccc(=O)[nH]c2=O)[C@H](OC(C)=O)[C@@H]1OC(C)=O` [triacetyluridine, 2′, 3′, 5′-tri-O-acetyl-1-β-D-uridine], in series [2] (human, in vivo), the cystic breast disease result is “flared slightly”, the menstrual cycle entry is given as “returned to normal” and the menstrual cycles result is on record as “shortened from every 4 weeks to every 2 weeks”. Further, in series [2] (patient three (before: QID catheterization), started at 0.05 g/kg/d), the “I&O catheterization required” value is given as 1-2 times a week. The functional capacity result in series [2] (patient three, after 6 weeks of triacetyluridine) is “able to walk a full mile”. Also, in series [2] (setting [7]), the “pain of biliary dyssynergia” value is “gone”; the painful paresthesias result was “gone, although some numbness persists”; the “seizures and migraine since starting treatment” value was “has not had a seizure or migraine”; the sensorium result was “Her sensorium has cleared”. In series [2] (setting [7]), the tachy-brady syndrome entry is listed as “persists”. Further, the aminoaciduria result in series [3] (patient two) is “improved”. Besides, in series [3] (patient two (before: 25 mEg/kg/day)), the “need for supplemental bicarbonate” value is “did not require any further supplemental bicarbonate”. In series [3] (patient two, emergency treatment with triacetyluridine), the “time to complete resolution of renal tubular acidosis” value was at most 12 h. In addition, the clinical outcome in series [3] (patient two, in coma before treatment) was “never awoke from their coma, and died after a 4 week terminal illness”. Further, the “time until plasma amino acids returned to normal ranges” value in series [3] (patient two, while receiving continuous parenteral nutrition) is at most 2 h. Besides, the nocturnal seizure activity result in series [4] (after increase to 0.24 g/kg/d with 0.5 g calcium pyruvate TID added, transient escalation, then after 3 days) was “decreased to zero”. Also, in series [4] (first three days, 0.05 g/kg/day), the “seizures and involuntary lip movements” value is given as “stopped completely”. Besides, in series [4] (for several weeks), the functional outcome is “able to return to school and play little league baseball again”. For the same compound, the “time to complete correction of RTA” value in series [5] (Patient #1 (Leigh syndrome, complex I deficiency), triacetyluridine 2 g/m^2 PO TID) is at most 24 h. Also, in series [5] (setting [8]), the “serum bicarbonate maintained without any further oral bicarbonate” value is “more than 20 mEq/l” and the “time to complete resolution of hydroxyprolinuria” value was at most 2 weeks. Also, in series [5] (Patient #2 (initially 99 mEq/l), after 36 hours on treatment, 2 g/m^2 PO TID), the urinary bicarbonate losses is recorded as below 5 mEq/l. Besides, in series [5] (Patient #2, after 3 weeks of treatment, 2 g/m^2 PO TID), the “share of pre-enrollment dose of bicarbonate needed to maintain normal serum bicarbonate” value is 25%. The urinary bicarbonate losses in series [5] (Patient #3 (59 mEq/l prior to therapy), after 36 hours of treatment, 2 g/m^2 PO TID) is given as below 5 mEq/l. Also, in series [5] (Patient #3, after 3 weeks of treatment, 2 g/m^2 PO TID), the “share of previous dose of bicarbonate required” value came to 10%. The “reduction in oral bicarbonate requirement” value in series [5] (Patient #4, following 1 week of treatment, 2 g/m^2 PO TID) is 35%. The “patients in whom renal tubular acidosis was corrected or dramatically improved” value in series [5] (patients with mitochondrial disease, 2 g/m^2 PO TID) was 4 out of 4. The “overall condition and symptomotology (conclusion)” value in series [6] (MARIAHS syndrome patient) is “dramatic improvement in the patient's condition, and a marked reduction in symptomotology”. Moreover, in series [6] (human, in vivo), the toxicity result is “no biochemical, hematologic, or clinical toxicity”. Further, the truncal ataxia result in series [6] (patient four, uridine, then triacetyluridine) was “Mild truncal ataxia persists”. The language and gait entry in series [6] (patient four, within 2 months of a dose increase to 0.2 g/kg/day) is “rapid increase in expressive language acquisition and a narrowing of their previous broad-based, ataxic gait”.
With `O=c1ccn([C@@H]2O[C@H](CO)[C@@H](O)[C@H]2O)c(=O)[nH]1` [uridine, reference compound], in series [6] (patient four, after 20 months on uridine), the “follow-up brain MRI, white matter disease” value is recorded as “no progression in their white matter disease”.

The record behind these values is patent US8748408B2, “Methods of treatment of mitochondrial disorders” (The Regents of the University of California, priority 1999, dated 2014).
